# Laboratory results as given in patent publication US7960552B2, “Farnesoid X receptor agonists” (GlaxoSmithKline LLC, priority 2006, dated 2011).
# “Also recorded” adds a separate entry of the source.
# Key:
# [1] = system: high-fat diet fed obese mice; assay: Effects of FXR agonists on diet induced obese mice; assay type: in vivo, C57BL mice; settings: 10, 30 and 100 mg/kg twice a day orally; for serum NEFA / serum cholesterol / serum glucose / serum glycerol / serum insulin / serum triglyceride: end of study; for body fat mass: four weeks of treatment, QMR
# Protocol: Methods: Male 20 to 25 g C57BL mice (Charles River, Indianapolis, Ind.) were housed at 72° F. and 50% relative humidity with a 12 h light and dark cycle and fed with standard rodent chow (Purina 5001, Harlan Teklad, Indianapolis, Ind.) or a high-fat diet (TD93075, Harlan Teklad, Indianapolis, Ind.) for eight weeks. After three weeks, mice on high-fat diet were randomized to vehicle or treatment groups based on fasting glucose and body weight. Starting from the fifth week, mice were given either vehicle or the compound in Example 1 (10, 30 and 100 mg/kg) or the compound in Example 5 (10, 30, 100 mg/kg) twice a day orally. Mice on the standard rodent chow were also given vehicle as a control. Body composition was measured using the quantitative magnetic resonance (QMR) method before and at the end of compound treatment. […] Serum chemistry levels were measured using the Instrumentation Laboratory Ilab600™ clinical chemistry analyzer (Instrumentation Laboratory, Boston, Mass.).
# [2] = system: hepatic stellate cells (HSC); settings: cultured HSCs; cited from earlier work
# [3] = system: rodent models of hepatic fibrosis; settings: multiple rodent models; cited from earlier work
# db/db mice = settings: oral 30 mg/kg, bid; cited from earlier work
# [4] = system: bile duct-ligated mouse model; settings: cited from earlier work
# [5] = system: high-fat diet induced insulin resistant, glucose intolerant, and obese mouse model; settings: mice on high-fat diet, cited from earlier work
# [6] = 100 mg/kg twice a day orally, 100 mg/kg
structure (smiles),measurement,setting,value
"CC(C)c1onc(-c2c(Cl)cccc2Cl)c1COc1ccc(-c2ccc3nc(C(=O)O)ccc3c2)cc1 [Example 1, 6-[4-({[3-(2,6-Dichlorophenyl)-5-(1-methylethyl)-4-isoxazolyl]methyl}oxy)phenyl]-2-quinolinecarboxylic Acid]",serum NEFA,[1],decreased
same,serum cholesterol,[1],decreased
same,serum glucose,[1],decreased
same,serum glycerol,[1],decreased
same,serum insulin,[1],decreased
same,serum triglyceride,[1],decreased
same,body fat mass,[1],decreased
"CC(C)c1onc(-c2c(Cl)cccc2Cl)c1COc1ccc(-c2ccc3cc(C(=O)O)ncc3c2)cc1 [Example 5, 7-[4-({[3-(2,6-Dichlorophenyl)-5-(1-methylethyl) -4-isoxazolyl]methyl}oxy)phenyl]-3-isoquinolinecarboxylic acid]",serum NEFA,[1],decreased
same,serum cholesterol,[1],decreased
same,serum glucose,[1],decreased
same,serum glycerol,[1],decreased
same,serum insulin,[1],decreased
same,serum triglyceride,[1],decreased
same,body fat mass,[1],decreased
"CC[C@H]1[C@@H](O)[C@@H]2[C@H](CC[C@]3(C)[C@@H]([C@H](C)CCC(=O)O)CC[C@@H]23)[C@@]2(C)CC[C@@H](O)C[C@@H]12 [Example 6EtCDCA, 6-ethyl-chenodeoxycholic acid]",expression of fibrotic marker α1(I)collagen,[2],decreased
same,expression of fibrotic marker α-smooth muscle actin,[2],decreased
same,development of hepatic fibrosis,[3],prevent
same,resolution of hepatic fibrosis,[3],promote
CC(C)c1onc(-c2c(Cl)cccc2Cl)c1COc1ccc(/C=C/c2cccc(C(=O)O)c2)c(Cl)c1 [GW4064],NEFA,db/db mice,decreased
same,total cholesterol,db/db mice,decreased
same,triglyceride,db/db mice,decreased
same,bacterial overgrowth,[4],decreased
same,mucosal barrier,[4],improved
same,translocation of bacteria to mesenteric lymph nodes,[4],decreased
same,serum glucose,[5]; [6],decreased
same,serum insulin,[5]; [6],decreased
same,serum triglyceride,[5]; [6],decreased
same,glucose tolerance,"[5]; 100 mg/kg twice a day orally, GTT, 100 mg/kg",corrected glucose intolerance; also recorded: improve
same,high-fat diet induced body weight gain,[5]; 100 mg/kg twice a day orally,reduced
same,liver triglyceride content,[5]; 100 mg/kg twice a day orally,reduced
same,body fat mass,[5],decrease
same,body weight,[5],decrease
same,serum total cholesterol,[5],decrease
